Nine molecules from paper PMC4180753, “Evaluation of Inhibitory Action of Novel Non β-Lactam Inhibitor against Klebsiella pneumoniae Carbapenemase (KPC-2)” (PLoS ONE, 2014) can be followed below.

Converted amounts (≈) assume the structure as drawn. Read-outs that look alike come from different tables or passages of the source.

For data set [1], the target named is T1, KPC-2 (Klebsiella pneumoniae, UniProt Q9F663). Nature of the data set: IC50 and Ki on purified KPC-2 (nitrocefin hydrolysis). The data set is classed as biochemical. The arrangement: inferred from Ni-NTA purification and the pQE-2 vector) (N); made in house; host or cells: E. coli BL21 (DE3). The conditions noted are these: for IC50: IC50, 1 nM purified KPC-2, 5 minutes pre-incubation, 30°C, pH 7.0, nitrocefin substrate (so in the source). How it is done: The 50% inhibitory concentration (IC50) was defined as the concentration of the inhibitor that inhibited hydrolytic activity of the enzyme by 50%.
T1 sequence (Q9F663 25-293 limits assumed): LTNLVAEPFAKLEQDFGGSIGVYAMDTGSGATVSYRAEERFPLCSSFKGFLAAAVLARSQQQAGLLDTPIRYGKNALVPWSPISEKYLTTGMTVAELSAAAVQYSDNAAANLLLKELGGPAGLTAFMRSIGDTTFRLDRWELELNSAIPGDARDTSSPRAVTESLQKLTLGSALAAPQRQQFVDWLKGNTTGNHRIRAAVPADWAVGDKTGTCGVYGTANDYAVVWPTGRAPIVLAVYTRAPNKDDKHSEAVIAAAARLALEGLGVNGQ
The inhibition constant, Ki, was calculated from the IC50 value by applying the Cheng-Prusoff correction

Data set [2] has as its system E. coli BL21 transformed with recombinant bla KPC-2 (pQE2-KPC-2). Nature of the data set: microbe, parasite or virus in culture. The data set is classed as cell-based, Escherichia coli. The following applies: for MIC of the carbapenem in combination with screened inhibitors (ZINC01807204 and ZINC02318494) / MIC: BL21 (pQE2-KPC-2); for MIC of the carbapenem in combination with screened inhibitors (ZINC01807204 and ZINC02318494) / reduction in MIC of the carbapenem in combination with screened compounds (ZINC01807204 and ZINC02318494): inhibitors 4 µg/ml; for MIC: inhibitors at fixed concentration of 4 µg/ml; for reduction in MIC of the carbapenem in combination with screened compounds (ZINC01807204 and ZINC02318494): KPC-2 expressing BL21 cells. As for the experimental part:
A carbapenem resistant clinical strain of K. pneumoniae (NP6), previously characterised in our lab was procured from Jawaharlal Nehru Medical College (JNMC), Aligarh. […] Escherichia coli (DH5α) and E. coli BL21 (DE3) were used for cloning and protein expression experiments respectively. Minimum inhibitory concentration (MIC) and Confocal Laser Scanning Microscopy (CLSM) experiments were conducted on E.coli (BL21) cells expressing recombinant KPC-2 β-lactamase.
(§1) The Minimum Inhibitory Concentrations (MIC) of recombinant BL21(DE3) cells harboring bla KPC-2 gene were determined by micro dilution method for different carbapenems alone and in combination with inhibitors (Clavulanic acid, Sulbactam, Tazobactam, ZINC01807204 and ZINC02318494) against BL21 control cells (cells with null vector). The recombinant E. coli cells were induced with IPTG prior to performing experiments. The antimicrobial agents, imipenem, meropenem, ertapenem, clavulanic acid, sulbactam and tazobactam were obtained from Sigma Aldrich (USA) and compounds ZINC01807204 and ZINC02318494 were procured from Vitas M (Netherlands). The inhibitors were taken at a fixed concentration of 4 µg/ml.

Data set [3] concerns E. coli BL21 (Null plasmid). Nature of the data set: microbe, parasite or virus in culture. Format: cell-based. The following applies: Escherichia coli, inhibitors at fixed concentration of 4 µg/ml. As for the experimental part: as §1
In data set [4] the test system is Klebsiella pneumoniae NP6 (clinical strain, KPC-2). The data set is described as follows: microbe, parasite or virus in culture. Format: cell-based.
In data set [5] the test system is Klebsiella pneumoniae MTCC 432. Nature of the data set: MIC, susceptible MTCC strain. The data set is classed as cell-based.
The test system of data set [6] is E. coli BL21 transformants harbouring bla KPC-2. Nature of the data set: CLSM Live/Dead cell staining (PI/SYTO 9). The following applies: 4 hours. Format: cell-based, Escherichia coli. As for the experimental part: The control was taken without any drug. The media was inoculated and incubated at 37^οC for 4 hours. The media was removed and dishes were gently washed with MOPS (pH 7.0) to wash off extra media. Cells were then stained with propidium iodide (PI) and SYTO 9 (1∶1) for one hour. The fluorescence emission was observed using confocal scanning laser microscope FluoView FV1000 (Olympus, Tokyo, Japan). The optimal excitation wavelengths were […] and the optimal emission wavelengths were 500 and 610 nm, respectively. The images were obtained from atleast three randomly picked positions. The images of the control and in presence of known as well as novel inhibitors were averaged and compared.

Data set [7] is described as follows: Solubility observed in the inhibition assay. The data set is classed as physicochemical. The following applies: at higher concentrations; reason IC50 and Ki could not be determined.
Data set [8] addresses T1, KPC-2. The conditions noted are these: nitrocefin as reporter substrate of KPC-2.
[9] abbreviates: MTCC432, MTCC 432, inhibitors at fixed concentration of 4µg/ml, read-out: MIC.
[10] abbreviates: sub-MIC meropenem in combination with the inhibitor (4 µg/ml).

The term Ki denotes the equilibrium dissociation constant of an inhibitor or competing ligand from its target. By IC50 is commonly meant the concentration needed to halve the response being measured. The low end stands for greater potency, the high end for weaker potency. On to `O=C(O)[C@H]1/C(=C/CO)O[C@@H]2CC(=O)N21` [Clavulanic acid], for which, in data set [1], affinity was put at a Ki of 30 µM and the IC50 was determined as 137 µM.
With `C[C@@H](O)[C@H]1C(=O)N2C(C(=O)O)=C(S[C@@H]3CN[C@H](C(=O)Nc4cccc(C(=O)O)c4)C3)[C@H](C)[C@H]12` [Ertapenem, ertapenem], the “MIC of the carbapenem in combination with screened inhibitors (ZINC01807204 and ZINC02318494)” value in data set [2] is 16 µg/mL. Moreover, the MIC in data set [2] was ≥128 µg/mL; in data set [2] (Escherichia coli), 128 µg/mL; in data set [3], 0.25 µg/mL; in data set [4] it was ≥ 256 µg/mL; in data set [5] (setting [9]), 0.0625 µg/mL (≈ 0.131 µM). In addition, the “reduction in MIC of the carbapenem in combination with screened compounds (ZINC01807204 and ZINC02318494)” value (shortened to “reduction in MIC of the carbapenem”) in data set [2] came out at 8 fold.
In the case of `C[C@@H](O)[C@H]1C(=O)N2C(C(=O)O)=C(SCCN=CN)C[C@H]12` [Imipenem, imipenem], the “MIC of the carbapenem in combination with screened inhibitors (ZINC01807204 and ZINC02318494)” value in data set [2] was 16 µg/mL. Moreover, the MIC in data set [2] is ≥64 µg/mL; in data set [2] (Escherichia coli), 64 µg/mL; in data set [3], 0.25 µg/mL; in data set [4], ≥ 256 µg/mL; in data set [5] (setting [9]) it was 0.0625 µg/mL (≈ 0.209 µM). In data set [2], the “reduction in MIC of the carbapenem” value is recorded as “four fold”.
`C[C@@H](O)[C@H]1C(=O)N2C(C(=O)O)=C(S[C@@H]3CN[C@H](C(=O)N(C)C)C3)[C@H](C)[C@H]12` [Meropenem, meropenem]: in data set [2], the “MIC of the carbapenem in combination with screened inhibitors (ZINC01807204 and ZINC02318494)” value came out at 8 µg/mL. Further, the MIC in data set [2] is ≥64 µg/mL; in data set [2] (Escherichia coli) it was 64 µg/mL; in data set [3], 0.125 µg/mL; in data set [4], ≥ 256 µg/mL; in data set [5] (MTCC432), 0.125 µg/mL (≈ 0.326 µM). In addition, the “reduction in MIC of the carbapenem” value in data set [2] is 8 fold and eight fold. For the same molecule, the “cells green with normal cell membranes” value in data set [6] (sub-MIC concentration of meropenem alone) is on record as 60–70%.
For the molecule `CC1(C)[C@H](C(=O)O)N2C(=O)C[C@H]2S1(=O)=O` [Sulbactam], in data set [1], the Ki came out at 23.2 µM and the IC50 came out at 106 µM.
Consider `C[C@]1(Cn2ccnn2)[C@H](C(=O)O)N2C(=O)C[C@H]2S1(=O)=O` [Tazobactam], for which, in data set [6] (setting [10]), the “cells green with normal cell membranes” value was 60–70%. In data set [1], this molecule displayed a Ki of 21.6 µM and an IC50 of 98.8 µM.
On to `CC(=O)Nc1ccc(S(=O)(=O)Nc2ccccc2NS(=O)(=O)c2ccc(NC(C)=O)cc2)cc1` [ZINC01807204], for which the “cells binding PI and Syto 9 (yellowish orange, affected)” value in data set [6] (setting [10]) is on record as 90–95%. In data set [1], the Ki was 43.8 µM and the IC50 was 200 µM.
`CC(C)[C@H](NS(=O)(=O)c1ccc2c(c1)Cc1cc(S(=O)(=O)N[C@H](C(=O)O)C(C)C)ccc1-2)C(=O)O` [ZINC02318494]: the “cells binding PI and Syto 9 (yellowish orange, affected)” value in data set [6] (setting [10]) is 90–95%. For the same molecule, in data set [7], the solubility entry is listed as “poor solubility at higher concentrations”.
For orientation: Km means the concentration of substrate that gives half-maximal velocity. In the case of `O=C(Cc1cccs1)N[C@@H]1C(=O)N2C(C(=O)O)=C(/C=C/c3ccc([N+](=O)[O-])cc3[N+](=O)[O-])CS[C@H]12` [nitrocefin], the Km in data set [8] turned out to be 28 ± 6 µM.
